Measurements taken from PMC10017155 (Aging and Disease, 2023).
“Also recorded” adds a separate entry of the source. Peptide text beside a SMILES is read from it.

Legend:
transgenic mice = details: cited from earlier work
From the text: The development of AD comprises a cascade of pathogenic processes in brain tissue. Some of the major elements of this cascade are the aggregation of beta-amyloid (Aβ) with the formation of neurotoxic oligomers, hyperphosphorylation of tau, and neuroinflammation. […] In the sporadic form of AD, accounting for 95% of disease cases, the molecular triggers for the pathological cascade remain unknown. […] We hypothesized that the contribution of isoD7-Aβ to the development of AD is based on the formation of zinc-bound complexes that promote pathological aggregation of Aβ (Fig. 1A). […] Interaction of HAEE with beta-amyloid. (A) A model for the contribution of isoD7-Aβ to AD pathology, and the possible ways of preventing its deleterious effects. Aβ spontaneously converts into isoD7-Aβ, which is accumulated over age, likely due to reduced Aβ clearance. Isomerized Aβ promotes AD pathology, potentially via formation of Zn-bound complexes serving as the seeds for a generation of neurotoxic oligomers. Treatment with anti-isoAβ antibodies is a promising therapeutic strategy already showing effectiveness in AD model mice ^9.

C. elegans CL2122 = test: Lifespan analysis, C. elegans CL2122 (transgenic control); type: in vivo; details: for Increase/decrease in lifespan: vs control of same repeat
Description: (§1) C. elegans CL2120 (dvIs14 [(pCL12) unc-54::beta 1-42 +(pCL26) mtl-2::GFP]) and C. elegans CL2122 (dvIs15 [(pPD30.38) unc-54(vector) + (pCL26) mtl-2::GFP]) strains were obtained from the Caenorhabditis Genetics Center. The worms were handled according to standard methods without FUDR [18]. E. coli OP50 bacteria were grown overnight in Luria-Bertani broth and 50µl were spread atop NGM or NGMZn plates. NGMZn has 20μM ZnSO4. Seeded plates were incubated at 30°C for ~16 hours and then for 1-2 hours at 15 or 25°C before worms were transferred. Lifespan and paralysis experiments (see below) were performed at 25°C for enhanced expression of Aβ. This temperature is standard when studying the effects of Aβ on C. elegans CL2120 strain [19].
(§2) Nematodes were purified from unwanted microflora by the alkaline hypochlorite method, grown to the L4 stage at 15°C on NGM plates with bacterial lawn. […] Further, all contents were transferred to Petri plates with NGM or NGMZn with OP50 and placed in a temperature-controlled incubator at 25°C. Next day, worms were transferred onto similar media with a bacterial substrate and the lifespan was determined at 25°C (Supplementary Tables 3, 4).
(§3) Lifespans were monitored at 25°C as described previously. All experiments were repeated at least three times and ≈130 worms were used for each experiment. Details regarding repeated experiments and amounts of animals used for experiments are summarized in Supplementary Tables 3, 4. In all cases, stage L4 worms were used at t = 0 for lifespan analyses and worms were transferred every other day to new agar plates. […] Escaped animals or animals with internal hatching were not included in lifespan calculation. Data was analyzed and Boltzmann sigmoid survival curves generated using the SciDAVis statistical analysis software package. Mean lifespans were compared in Microsoft Excel using the Student t test, applying one-tailed distribution and two-sample equal variance. All lifespan plots represent the composites of all independent experiments tabulated in Supplementary Tables 3, 4. Mean percentage change ±SD of lifespan after treatment, relative to untreated control are indicated in each graph in the same color as the curve.

C. elegans CL2120 [1] = test: Amyloid load by X-34 staining in C. elegans CL2120; type: in vivo
Description: as §1, §2
Post-hoc analysis was performed with the Tukey test.
Figure 2.

C. elegans CL2120 [2] = test: Lifespan analysis, C. elegans CL2120; type: in vivo; details: for Mean survival: Aβ42 or isoD7-Aβ42 40 μM, HAEE 4 mM; for Increase/decrease in lifespan: vs control of same repeat
Description: as §1, §2, §3

Aβ16 = test: NMR titration, Aβ16 with HAEE and Zn2+; type: binding; details: 278 K, pH 6.8, Zn2+
Description: (§4) Peptides Aβ16, H6R-Aβ16 and isoD7-Aβ16 at the concentration of 0.2 - 8mM were dissolved in 10-20 mM bis-Tris-d19 (2,2-Bis(hydroxymethyl)-2,2′,2"-nitrilotrie-thanol-d19 with 98% ^2D enrichment) buffer solution (pH 6.8). Sodium salt of 3-(trimethylsilyl) propionic-2,2,3,3-d4 acid (DSS) at a concentration of 10-20 μM was added as the standard. NMR spectra were measured at 278 K in 90% H2O/10% D2O with Bruker AVANCE 600 MHz spectrometer equipped with triple resonance (^1H, ^13C and ^15N) pulsed field z gradient probe. 1D NMR spectra were processed and analyzed using the Mnova software (Mestrelab Research, Spain). In order to monitor peptide-peptide interactions NMR titration experiments were carried out. […] 1D spectra were recorded for each titration point.

isoD7-Aβ16 = test: NMR titration, isoD7-Aβ16 with HAEE and Zn2+; type: binding; details: NMR
Description: as §4

[3] = CL2122, NGM (no Zn), replicate 1
[4] = CL2122, NGM (no Zn), replicate 2
[5] = CL2122, NGM (no Zn), replicate 3
[6] = HAEE 4 mM + isoD7-Aβ42 40 µM, NGMZn, X-34
[7] = CL2120, NGM (no Zn), replicate 1
[8] = CL2120, NGM (no Zn), replicate 2
[9] = CL2120, NGM (no Zn), replicate 3

CC(=O)N[C@@H](Cc1c[nH]cn1)C(=O)N[C@@H](C)C(=O)N[C@@H](CCC(=O)O)C(=O)N[C@@H](CCC(=O)O)C(N)=O [HAEE, Ac-HAEE-NH2] (Ac-HAEE-NH2)
Amyloid accumulation in animal models of AD (transgenic mice): hamper amyloid accumulation
Effect of HAEE itself on lifespan (C. elegans CL2122; CL2122, HAEE 4 mM): no effect
Mean survival (C. elegans CL2122; CL2122, NGM (no Zn), Aβ42 or isoD7-Aβ42 40 μM, HAEE 4 mM, 25°C, mean ± SD of 3 experiments): 9.07 ± 0.25 days
50% survival (C. elegans CL2122; [3]): 8.8 days
50% survival (C. elegans CL2122; [4]): 9.3 days
50% survival (C. elegans CL2122; [5]): 9.1 days
Mean increase/decrease in lifespan (C. elegans CL2122; CL2122, NGM (no Zn), vs control NGM, mean ± SD of 3 experiments): 0.03±1.89%
Increase/decrease in lifespan (C. elegans CL2122; [3]): 1.15%
Increase/decrease in lifespan (C. elegans CL2122; [4]): 1.09%
Increase/decrease in lifespan (C. elegans CL2122; [5]): -2.15%
Effect on lifespan (C. elegans CL2122; CL2122, NGM, without Zn2+, 25°C): do not affect
50% survival (C. elegans CL2122; CL2122, NGMZn, replicate 1): 8.8 days
50% survival (C. elegans CL2122; CL2122, NGMZn, replicate 2): 9.1 days
50% survival (C. elegans CL2122; CL2122, NGMZn, replicate 3): 8.9 days
Mean increase/decrease in lifespan (C. elegans CL2122; CL2122, NGMZn, vs control NGMZn, mean ± SD of 3 experiments): -1.05 ±2.87%
Increase/decrease in lifespan (C. elegans CL2122; CL2122, NGMZn, replicate 1): 1.15%
Increase/decrease in lifespan (C. elegans CL2122; CL2122, NGMZn, replicate 2): 0%
Increase/decrease in lifespan (C. elegans CL2122; CL2122, NGMZn, replicate 3): -4.3%
Effect of HAEE on isoD7-Aβ42/Zn2+-induced amyloidosis (C. elegans CL2120 [1]; [6]): completely negated; also recorded: abrogates this pathological process; also recorded: fails to induce amyloidosis
Number of plaques and plaque area (C. elegans CL2120 [1]; [6]): reduced back to the untreated group values
Effect on endogenous amyloidosis in untreated transgenic C. elegans (C. elegans CL2120 [1]; HAEE alone): did not affect the endogenous amyloidosis
Effect of HAEE itself on lifespan (C. elegans CL2120 [2]; CL2120, HAEE 4 mM): no effect
Mean survival (C. elegans CL2120 [2]; CL2120, NGM (no Zn), 25°C, mean ± SD of 3 experiments): 8.83 ± 0.31 days
50% survival (C. elegans CL2120 [2]; [7]): 8.5 days
50% survival (C. elegans CL2120 [2]; [8]): 8.9 days
50% survival (C. elegans CL2120 [2]; [9]): 9.1 days
Mean increase/decrease in lifespan (C. elegans CL2120 [2]; CL2120, NGM (no Zn), vs control NGM, mean ± SD of 3 experiments): 1.53±0.63%
Increase/decrease in lifespan (C. elegans CL2120 [2]; [7]): 1.19%
Increase/decrease in lifespan (C. elegans CL2120 [2]; [8]): 1.14%
Increase/decrease in lifespan (C. elegans CL2120 [2]; [9]): 2.25%
Effect on lifespan (C. elegans CL2120 [2]; CL2120, NGM, without Zn2+, 25°C): do not affect
Mean survival (C. elegans CL2120 [2]; CL2120, NGMZn (ZnSO4 20 μM), 25°C, mean ± SD of 3 (isoD7-Aβ42: 5) experiments): 9.2 ± 0.7 days
Effect of HAEE on lifespan shortened by isoD7-Aβ42 + Zn2+ (C. elegans CL2120 [2]; CL2120, NGMZn, HAEE 4 mM + isoD7-Aβ42 40 μM): removes the negative effect; also recorded: completely restored the shortened lifespan
50% survival (C. elegans CL2120 [2]; CL2120, NGMZn, replicate 1): 9.3 days
50% survival (C. elegans CL2120 [2]; CL2120, NGMZn, replicate 2): 9 days
50% survival (C. elegans CL2120 [2]; CL2120, NGMZn, replicate 3): 9.3 days
Mean increase/decrease in lifespan (C. elegans CL2120 [2]; CL2120, NGMZn, vs control NGMZn, mean ± SD of 3 (isoD7-Aβ42: 5) experiments): 1.85 ±0.66%
Increase/decrease in lifespan (C. elegans CL2120 [2]; CL2120, NGMZn, replicate 1): 1.09%
Increase/decrease in lifespan (C. elegans CL2120 [2]; CL2120, NGMZn, replicate 2): 2.27%
Increase/decrease in lifespan (C. elegans CL2120 [2]; CL2120, NGMZn, replicate 3): 2.20%
Signal at 0.2 ppm (characteristic of the dimeric form of the Aβ metal binding domain) (Aβ16; 1H NMR): eliminated the signal
Zinc-dependent dimerization of Aβ16 (Aβ16; NMR): inhibits
Zinc-dependent dimerization of isoD7-Aβ16 (isoD7-Aβ16; 278 K, pH 6.8, Zn2+): inhibits
Effect of Zn2+ on isoD7-Aβ16 NMR signal in the presence of HAEE (isoD7-Aβ16; pH 6.8, 278 K, Zn2+ plus HAEE): did not diminish the isoD7-Aβ16 signal
